Converted amounts (≈) assume the structure as drawn. The source made the active and inactive calls. The rule behind the calls is not given here.
How the values were obtained:
A549 = test: Cytotoxicity against human A549 cells after 24 hrs by MTT assay; format: functional, cell-based; details: A549, 24 h
DU-145 = test: Cytotoxicity against human DU145 cells after 24 hrs by MTT assay; format: functional, cell-based; details: DU-145, 24 h
MCF7 = test: Cytotoxicity against human MCF7 cells after 24 hrs by MTT assay; format: functional, cell-based; details: MCF7, 24 h
HeLa = test: Cytotoxicity against human HeLa cells after 24 hrs by MTT assay; format: functional, cell-based
Micrococcus luteus [1] = test: Antimicrobial activity against Micrococcus luteus MTCC 2470 assessed as inhibition of biofilm formation after 24 hrs by crystal violet staining-based assay; format: functional, organism-based; details: MTCC 2470, 24 h
Staphylococcus aureus [2] = test: Antimicrobial activity against Staphylococcus aureus MLS-16 MTCC 2940 assessed as inhibition of biofilm formation after 24 hrs by crystal violet staining-based assay; format: functional, organism-based; details: MLS-16 MTCC 2940, 24 h
Staphylococcus aureus [3] = test: Antimicrobial activity against Staphylococcus aureus MTCC 96 assessed as inhibition of biofilm formation after 24 hrs by crystal violet staining-based assay; format: functional, organism-based; details: MTCC 96, 24 h
Raoultella planticola [4] = test: Antimicrobial activity against Klebsiella planticola MTCC 530 assessed as inhibition of biofilm formation after 24 hrs by crystal violet staining-based assay; format: functional, organism-based; details: MTCC 530, 24 h
Pseudomonas aeruginosa [5] = test: Antimicrobial activity against Pseudomonas aeruginosa MTCC 2453 assessed as inhibition of biofilm formation after 24 hrs by crystal violet staining-based assay; format: functional, organism-based; details: MTCC 2453, 24 h
Staphylococcus aureus [6] = test: Antimicrobial activity against Staphylococcus aureus MLS-16 MTCC 2940 after 24 hrs by well diffusion method; format: functional; details: MLS-16 MTCC 2940, 24 h
Staphylococcus aureus [7] = test: Antimicrobial activity against Staphylococcus aureus MTCC 96 after 24 hrs by well diffusion method; format: functional; details: MTCC 96, 24 h
Pseudomonas aeruginosa [8] = test: Antimicrobial activity against Pseudomonas aeruginosa MTCC 2453 after 24 hrs by well diffusion method; format: functional; details: MTCC 2453, 24 h
Bacillus subtilis [9] = test: Antimicrobial activity against Bacillus subtilis MTCC 121 after 24 hrs by well diffusion method; format: functional; details: MTCC 121, 24 h
Escherichia coli [10] = test: Antimicrobial activity against Escherichia coli MTCC 739 after 24 hrs by well diffusion method; format: functional; details: MTCC 739, 24 h
Raoultella planticola [11] = test: Antimicrobial activity against Klebsiella planticola MTCC 530 after 24 hrs by well diffusion method; format: functional; details: MTCC 530, 24 h
Candida albicans = details: MTCC 3017
Description: Antimicrobial activity against Candida albicans MTCC 3017 after 24 hrs by well diffusion method

Micrococcus luteus [12] = test: Antimicrobial activity against Micrococcus luteus MTCC 2470 after 24 hrs by well diffusion method; format: functional; details: MTCC 2470, 24 h
Micrococcus luteus [13] = test: Bactericidal activity against Micrococcus luteus MTCC 2470 after 24 hrs by agar plating method; format: functional; details: MTCC 2470, 24 h
Staphylococcus aureus [14] = test: Bactericidal activity against Staphylococcus aureus MTCC 96 after 24 hrs by agar plating method; format: functional; details: MTCC 96, 24 h
Raoultella planticola [15] = test: Bactericidal activity against Klebsiella planticola MTCC 530 after 24 hrs by agar plating method; format: functional; details: MTCC 530, 24 h
Bacillus subtilis [16] = test: Bactericidal activity against Bacillus subtilis MTCC 121 after 24 hrs by agar plating method; format: functional; details: MTCC 121, 24 h
Escherichia coli [17] = test: Bactericidal activity against Escherichia coli MTCC 739 after 24 hrs by agar plating method; format: functional; details: MTCC 739, 24 h
Pseudomonas aeruginosa [18] = test: Bactericidal activity against Pseudomonas aeruginosa MTCC 2453 after 24 hrs by agar plating method; format: functional; details: MTCC 2453, 24 h
Staphylococcus aureus [19] = test: Bactericidal activity against Staphylococcus aureus MLS-16 MTCC 2940 after 24 hrs by agar plating method; format: functional; details: MLS-16 MTCC 2940, 24 h

| SMILES | IC50 (A549) | IC50 (DU-145) | IC50 (MCF7) | IC50 (HeLa) | MIC (Staphylococcus aureus [6]) | MIC (Staphylococcus aureus [7]) | MIC (Pseudomonas aeruginosa [8]) | MIC (Bacillus subtilis [9]) | MIC (Escherichia coli [10]) | MIC (Raoultella planticola [11]) | MIC (Candida albicans) | MIC (Micrococcus luteus [12]) | also measured |
| --- | --- | --- | --- | --- | --- | --- | --- | --- | --- | --- | --- | --- | --- |
| Nc1nc(C(F)(F)F)cc(=O)n1Cc1cn(-c2nn(CCC(F)(F)C(F)(F)C(F)(F)C(F)(F)C(F)(F)C(F)(F)C(F)(F)C(F)(F)F)c3nc(C(F)(F)F)ccc23)nn1 | 68.2 µM | 88.8 µM | > 100 µM | > 100 µM | – | – | – | – | – | – | – | – | – |
| CC[C@H]1OC(=O)[C@H](C)[C@@H](O[C@H]2C[C@@](C)(OC)[C@@H](O)[C@H](C)O2)[C@H](C)[C@@H](O[C@@H]2O[C@H](C)C[C@H](N(C)C)[C@H]2O)[C@](C)(O)C[C@@H](C)C(=O)[C@H](C)[C@@H](O)[C@]1(C)O [ERYTHROMYCIN] | – | – | – | – | – | – | – | – | – | – | – | – | IC50 (Micrococcus luteus [1]): 0.24 µg/mL (≈ 0.327 µM); IC50 (Staphylococcus aureus [2]): 0.32 µg/mL (≈ 0.436 µM); IC50 (Staphylococcus aureus [3]): 0.32 µg/mL (≈ 0.436 µM); IC50 (Raoultella planticola [4]): 0.21 µg/mL (≈ 0.286 µM); IC50 (Pseudomonas aeruginosa [5]): 0.26 µg/mL (≈ 0.354 µM) |
| C#CCn1nc(-n2cc(Cn3c(N)nc(C(F)(F)F)cc3=O)nn2)c2ccc(C(F)(F)F)nc21 | 21.2 µM | 23.4 µM | 12.4 µM | 10.2 µM | – | – | – | – | – | – | – | – | – |
| C#CCn1nc(-n2cc(COc3cc(C(F)(F)F)nc(N)n3)nn2)c2ccc(C(F)(F)F)nc21 | 4.1 µM | 4.7 µM | > 100 µM | > 100 µM | > 250 µg/mL | > 250 µg/mL | > 250 µg/mL | > 250 µg/mL | > 250 µg/mL | > 250 µg/mL | inactive | > 250 µg/mL | – |
| CCCCCCCCCCn1nc(-n2cc(Cn3c(N)nc(C(F)(F)F)cc3=O)nn2)c2ccc(C(F)(F)F)nc21 | 14.3 µM | 17.1 µM | 15.7 µM | 13.4 µM | – | – | – | – | – | – | – | – | – |
| O=c1[nH]cc(F)c(=O)[nH]1 [FLUOROURACIL] | 1.3 µM | 1.5 µM | 1.4 µM | 1.3 µM | – | – | – | – | – | – | – | – | – |
| C=CCn1nc(-n2cc(Cn3c(N)nc(C(F)(F)F)cc3=O)nn2)c2ccc(C(F)(F)F)nc21 | > 100 µM | > 100 µM | 20.2 µM | 18.2 µM | – | – | – | – | – | – | – | – | – |
| Nc1nc(OCc2cn(-c3nn(CCC(F)(F)C(F)(F)C(F)(F)C(F)(F)C(F)(F)C(F)(F)C(F)(F)C(F)(F)F)c4nc(C(F)(F)F)ccc34)nn2)cc(C(F)(F)F)n1 | 33.7 µM | 37.7 µM | > 100 µM | > 100 µM | > 250 µg/mL | > 250 µg/mL | > 250 µg/mL | > 250 µg/mL | > 250 µg/mL | > 250 µg/mL | inactive | > 250 µg/mL | – |
| O=C(O)c1cn(C2CC2)c2cc(N3CCNCC3)c(F)cc2c1=O [CIPROFLOXACIN] | – | – | – | – | 0.9 µg/mL (≈ 2.72 µM) | 0.9 µg/mL (≈ 2.72 µM) | 0.9 µg/mL (≈ 2.72 µM) | 0.9 µg/mL (≈ 2.72 µM) | 0.9 µg/mL (≈ 2.72 µM) | 0.9 µg/mL (≈ 2.72 µM) | inactive | 0.9 µg/mL (≈ 2.72 µM) | MBC (Micrococcus luteus [13]): 0.58 µg/mL (≈ 1.75 µM); MBC (Staphylococcus aureus [14]): 0.58 µg/mL (≈ 1.75 µM); MBC (Raoultella planticola [15]): 1.17 µg/mL (≈ 3.53 µM); MBC (Bacillus subtilis [16]): 1.17 µg/mL (≈ 3.53 µM); MBC (Escherichia coli [17]): 0.58 µg/mL (≈ 1.75 µM); MBC (Pseudomonas aeruginosa [18]): 0.58 µg/mL (≈ 1.75 µM); MBC (Staphylococcus aureus [19]): 1.17 µg/mL (≈ 3.53 µM) |
| Nc1nc(C(F)(F)F)cc(=O)n1Cc1cn(-c2n[nH]c3nc(C(F)(F)F)ccc23)nn1 | 9.5 µM | 10.5 µM | 14.4 µM | 16.1 µM | – | – | – | – | – | – | – | – | – |

From ChEMBL document CHEMBL3286384, “Synthesis, cytotoxicity, antimicrobial and anti-biofilm activities of novel pyrazolo[3,4-b]pyridine and pyrimidine functionalized 1,2,3-triazole derivatives” (Bioorg Med Chem Lett, 2014)
